# PMC6364417, “Kinase inhibitor library screening identifies synergistic drug combinations effective in sensitive and resistant melanoma cells” (Journal of Experimental & Clinical Cancer Research : CR, 2019)
# Columns and labels:
# Assay in all cases: Kinase inhibitor library screening, PrestoBlue cell viability, 1 or 10 μM, 72 h
# 501Mel cells (parental) = conditions: 501Mel Parental, 72 h; for Cell viability in kinase inhibitor library screening, 501Mel Parental, 1μΜ / Cell viability in kinase inhibitor library screening, 501Mel Parental, 10μΜ: in %
# Experimental: (§1) After 72 h of treatment, cell viability was assessed using the PrestoBlue Cell Viability Reagent (ThermoFisher Scientific). Measurements were performed with the CLARIOstar Monochromator microplate reader (BMG Labtech).
# (§2) Kinase inhibitor library screening. […] Each cell line was treated in its sensitive form (parental), and also as 2 resistant derivatives, which were made resistant to either Vemurafenib (XP) or Dabrafenib (GP). Drugs were added at 2 different concentrations, 1 and 10 μM, for 72 h and cell viability was assessed using the PrestoBlue Cell Viability assay. Results are depicted as % viability compared to untreated cells. Each cell line was analyzed at least in duplicate. […] (XLSX 95 kb)
# [1] = tested on: 501Mel-GP cells (Dabrafenib-resistant); conditions: 501Mel GP, 72 h; for Cell viability in kinase inhibitor library screening, 501Mel GP, 1μΜ / Cell viability in kinase inhibitor library screening, 501Mel GP, 10μΜ: in %
# Experimental: as §1, §2
# [2] = tested on: 501Mel-XP cells (Vemurafenib-resistant); conditions: 501Mel XP, 72 h; for Cell viability in kinase inhibitor library screening, 501Mel XP, 1μΜ / Cell viability in kinase inhibitor library screening, 501Mel XP, 10μΜ: in %
# Experimental: as §1, §2
# A375 cells (parental) = conditions: A375 Parental, 72 h
# Experimental: as §1, §2
# [3] = tested on: A375-GP cells (Dabrafenib-resistant); conditions: A375 GP, 72 h
# Experimental: as §1, §2
# [4] = tested on: A375-XP cells (Vemurafenib-resistant); conditions: A375 XP, 72 h
# Experimental: as §1, §2
# IGR37 cells (parental) = conditions: IGR37 Parental, 72 h; for Cell viability in kinase inhibitor library screening, IGR37 Parental, 1μΜ / Cell viability in kinase inhibitor library screening, IGR37 Parental, 10μΜ: in %
# Experimental: as §1, §2
# [5] = tested on: IGR37-GP cells (Dabrafenib-resistant); conditions: IGR37 GP, 72 h; for Cell viability in kinase inhibitor library screening, IGR37 GP, 1μΜ: in %
# Experimental: as §1, §2
# [6] = tested on: IGR37-XP cells (Vemurafenib-resistant); conditions: IGR37 XP, 72 h; for Cell viability in kinase inhibitor library screening, IGR37 XP, 1μΜ: in %
# Experimental: as §1, §2
Compound,"Cell viability in kinase inhibitor library screening, 501Mel Parental, 1μΜ (501Mel cells (parental); 1μΜ)","Cell viability in kinase inhibitor library screening, 501Mel Parental, 10μΜ (501Mel cells (parental); 10μΜ)","Cell viability in kinase inhibitor library screening, 501Mel GP, 1μΜ ([1]; 1μΜ)","Cell viability in kinase inhibitor library screening, 501Mel GP, 10μΜ ([1]; 10μΜ)","Cell viability in kinase inhibitor library screening, 501Mel XP, 1μΜ ([2]; 1μΜ)","Cell viability in kinase inhibitor library screening, 501Mel XP, 10μΜ ([2]; 10μΜ)","Cell viability in kinase inhibitor library screening, A375 Parental, 10μΜ (A375 cells (parental); 10μΜ)","Cell viability in kinase inhibitor library screening, A375 Parental, 1μΜ (A375 cells (parental); 1μΜ)","Cell viability in kinase inhibitor library screening, A375 GP, 1μΜ ([3]; 1μΜ)","Cell viability in kinase inhibitor library screening, A375 GP, 10μΜ ([3]; 10μΜ)","Cell viability in kinase inhibitor library screening, A375 XP, 1μΜ ([4]; 1μΜ)","Cell viability in kinase inhibitor library screening, A375 XP, 10μΜ ([4]; 10μΜ)","Cell viability in kinase inhibitor library screening, IGR37 Parental, 1μΜ (IGR37 cells (parental); 1μΜ)","Cell viability in kinase inhibitor library screening, IGR37 Parental, 10μΜ (IGR37 cells (parental); 10μΜ)","Cell viability in kinase inhibitor library screening, IGR37 GP, 10μΜ ([5]; 10μΜ) [%]","Cell viability in kinase inhibitor library screening, IGR37 GP, 1μΜ ([5]; 1μΜ)","Cell viability in kinase inhibitor library screening, IGR37 XP, 10μΜ ([6]; 10μΜ) [%]","Cell viability in kinase inhibitor library screening, IGR37 XP, 1μΜ ([6]; 1μΜ)",also measured
O=C(NCCCNc1nc(Nc2cccc(NC(=O)N3CCCC3)c2)ncc1I)c1cccs1 [BX-795],92.8,82.7,97.1,64.9,89.4,39.9,38.1,87.7,86.6,43.6,93.4,48.3,97.9,56.4,15.1,85.8,7.6,93.9,
O=C(Nc1cccc(Nc2ncc(Br)c(NCCc3cnc[nH]3)n2)c1)N1CCCC1 [BX-912],93.6,63.6,99.2,59.6,89.5,48.6,34.9,92.0,87.6,38.0,88.9,36.6,91.9,65.1,55.1,,16.7,94.7,
Cc1nc(NC(=O)N2CCC[C@H]2C(N)=O)sc1-c1ccnc(C(C)(C)C(F)(F)F)c1 [BYL719],99.0,90.7,,62.2,90.3,56.3,60.2,93.2,86.9,52.5,93.5,62.9,99.1,77.8,62.1,90.5,20.2,80.6,
CCN(CCO)CCCOc1ccc2c(Nc3cc(CC(=O)Nc4cccc(F)c4)[nH]n3)ncnc2c1 [Barasertib (AZD1152-HQPA)],,,,,,,,,,,,,,,,,,,cell viability (kinase inhibitor library screening) (501Mel cells (parental); 1μΜ): 96.3%; cell viability (kinase inhibitor library screening) (501Mel cells (parental); 10μΜ): 92.5%; cell viability (kinase inhibitor library screening) ([1]; 1μΜ): 99.2%; cell viability (kinase inhibitor library screening) ([1]; 10μΜ): 86.2%; cell viability (kinase inhibitor library screening) ([2]; 1μΜ): 90.3%; cell viability (kinase inhibitor library screening) ([2]; 10μΜ): 81.8%; cell viability (kinase inhibitor library screening) (A375 cells (parental); 10μΜ): 59.0%; cell viability (kinase inhibitor library screening) (A375 cells (parental); 1μΜ): 59.4%; cell viability (kinase inhibitor library screening) ([3]; 1μΜ): 57.9%; cell viability (kinase inhibitor library screening) ([3]; 10μΜ): 61.1%; cell viability (kinase inhibitor library screening) ([4]; 1μΜ): 66.2%; cell viability (kinase inhibitor library screening) ([4]; 10μΜ): 68.8%; cell viability (kinase inhibitor library screening) (IGR37 cells (parental); 1μΜ): 93.5%; cell viability (kinase inhibitor library screening) (IGR37 cells (parental); 10μΜ): 81.6%; cell viability (kinase inhibitor library screening) ([5]; 1μΜ): 98.3%; cell viability (kinase inhibitor library screening) ([5]; 10μΜ): 91.0%; cell viability (kinase inhibitor library screening) ([6]; 1μΜ): 98.0%; cell viability (kinase inhibitor library screening) ([6]; 10μΜ): 51.5%
